Laboratory results as given in patent US8569301B2, “6, 6-dioxo-6-thia-1, 4-diaza-naphthalenes as herbicides” (Syngenta Limited, priority 2009, dated 2013).

System: crop and representative weed species
Experiment: Example B2 herbicidal action post-emergence (Table B2)
Assay type: in vivo
Conditions: application post-emergence, rate 500 g/ha, evaluated after 15 days, score 10 to 0; for herbicidal damage score AMARE (10=total damage to plant; 0=no damage to plant): AMARE = Amaranthus retroflexus; for herbicidal damage score ECHCG (10=total damage to plant; 0=no damage to plant): ECHCG = Echinochloa crus-galli; for herbicidal damage score IPOHE (10=total damage to plant; 0=no damage to plant): IPOHE = Ipomea hederaceae; for herbicidal damage score SETFA (10=total damage to plant; 0=no damage to plant): SETFA = Setaria faberi
Experimental: Seeds of crop and representative weed species were sown in standard soil in pots. After cultivation for 14 days under controlled conditions in a glasshouse (at 22/16° C., day/night; 16 hours light; 65% humidity), the plants were sprayed. The spray solution was prepared by dissolving the technical active ingredient in acetone containing 10.56 wt % Emulsogen EL, 42.22 wt % N-methylpyrrolidone and 2.22 wt % DPG-monoethyl ether to give a 5% stock solution. This was then diluted with water containing 0.2% (v/v) of the adjuvant X-77 to give the desired treatment concentration.
The test plants were then grown on under controlled conditions in a glasshouse (at 22/16° C., day/night; 16 hours light; 65% humidity) and watered twice daily. After 15 days the test was evaluated and the assessed scores, from 10 to 0, are tabulated in Table B2 (10=total damage to plant; 0=no damage to plant).

Row | SMILES | herbicidal damage score AMARE (10=total damage to plant; 0=no damage to plant) | herbicidal damage score ECHCG (10=total damage to plant; 0=no damage to plant) | herbicidal damage score IPOHE (10=total damage to plant; 0=no damage to plant) | herbicidal damage score SETFA (10=total damage to plant; 0=no damage to plant)
1 | O=S1(=O)C(c2c(F)ccc(Br)c2Cl)=C(O)c2nccnc2C12CCCC2 [Compound F8] | 5 | 6 | 8 | 5
2 | CC1(C)c2nccnc2C(O)=C(c2cc(F)ccc2Cl)S1(=O)=O [Compound F3] | 7 | 4 | 8 | 4
3 | C#CCC1c2nccnc2C(O)=C(c2c(F)ccc(Br)c2Cl)S1(=O)=O (centres unmarked) [Compound E8] | 8 | 6 | 9 | 6
4 | CCCC1c2nccnc2C(O)=C(c2c(F)ccc(Br)c2Cl)S1(=O)=O (centres unmarked) [Compound E22] | 7 | 0 | 7 | 2
5 | C=CCC1c2nccnc2C(O)=C(c2c(F)ccc(Br)c2Cl)S1(=O)=O (centres unmarked) [Compound E20] | 7 | 2 | 7 | 4
